Test results published in article PMC4460250, “Systems Pharmacology Dissecting Holistic Medicine for Treatment of Complex Diseases: An Example Using Cardiocerebrovascular Diseases Treated by TCM” (Evidence-based Complementary and Alternative Medicine : eCAM, 2015).

What was measured:
[1] = in vivo; cited from earlier work
[2] = in vivo

SMILES | HIA(Human Intestinal Absorption) [1] | Class(High: HIA value ≥0.7; Low: HIA value < 0.7) [2]
CCCC(CCC)CCC[C@H]1COCCN1CCO [Delmopinol(S)] | 0.95 | High (key: High: HIA value ≥0.7; Low: HIA value < 0.7)
CN(Cc1cnc2nc(N)nc(N)c2n1)c1ccc(C(=O)NC(CCC(=O)O)C(=O)O)cc1 (stereo in doubt) [Methotrexate(R)] | 1 | High (key: High: HIA value ≥0.7; Low: HIA value < 0.7)
CC[C@H](C(=O)O)c1ccc(N2Cc3ccccc3C2=O)cc1 [Indobufen(S)] | 1 | High (key: High: HIA value ≥0.7; Low: HIA value < 0.7)
NC[C@@H]1O[C@H](O[C@H]2[C@@H](O)[C@H](O[C@@H]3[C@@H](O)[C@H](N)C[C@H](N)[C@H]3O[C@H]3O[C@H](CN)[C@@H](O)[C@H](O)[C@H]3N)O[C@@H]2CO)[C@H](N)[C@@H](O)[C@@H]1O [Neomycin] | 0.03 | Low (key: High: HIA value ≥0.7; Low: HIA value < 0.7)
CC(Cc1ccc(O)cc1)NCC(O)c1cc(O)cc(O)c1 (stereo not shown) [Fenoterol] | 0.6 | Low (key: High: HIA value ≥0.7; Low: HIA value < 0.7)
Clc1ccc(CO[C@@H](Cn2ccnc2)c2ccc(Cl)cc2Cl)c(Cl)c1 [Miconazole(R)] | 0.99 | High (key: High: HIA value ≥0.7; Low: HIA value < 0.7)
CCC[C@@H](C)C1(CC)C(=O)NC(=O)NC1=O [Pentobarbital(R)] | 1 | High (key: High: HIA value ≥0.7; Low: HIA value < 0.7)
O=[N+]([O-])O[C@H]1CO[C@H]2[C@@H]1OC[C@H]2O [Isosorbide-2-mononitrate] | 0.9 | High (key: High: HIA value ≥0.7; Low: HIA value < 0.7)
COCCc1ccc(OC[C@H](O)CNC(C)C)cc1 [Metoprolol(R)] | 0.96 | High (key: High: HIA value ≥0.7; Low: HIA value < 0.7)
COc1ccccc1OCCNC[C@H](O)COc1cccc2[nH]c3ccccc3c12 [Carvedilol(S)] | 0.8 | High (key: High: HIA value ≥0.7; Low: HIA value < 0.7)
CC(C)(C)c1ccc([C@H](O)CCCN2CCC(C(O)(c3ccccc3)c3ccccc3)CC2)cc1 [Terfenadine(R)] | 1 | High (key: High: HIA value ≥0.7; Low: HIA value < 0.7)
COc1ccccc1OC[C@H](O)COC(N)=O [Methocarbamol(S)] | 1 | High (key: High: HIA value ≥0.7; Low: HIA value < 0.7)
COc1ccc(CCN(C)CCC[C@](C#N)(c2cc(OC)c(OC)c(OC)c2)C(C)C)cc1OC [Gallopamil(R)] | 0.97 | High (key: High: HIA value ≥0.7; Low: HIA value < 0.7)
Cc1ccccc1N1C(=O)c2cc(S(N)(=O)=O)c(Cl)cc2N[C@H]1C [Metolazone(R)] | 0.64 | Low (key: High: HIA value ≥0.7; Low: HIA value < 0.7)
NCCC[C@@](N)(C(=O)O)C(F)F [Eflornithine(R)] | 0.55 | Low (key: High: HIA value ≥0.7; Low: HIA value < 0.7)
Cc1ccc(-c2nc3ccc(C)cn3c2CC(=O)N(C)C)cc1 [Zolpidem] | 0.95 | High (key: High: HIA value ≥0.7; Low: HIA value < 0.7)
CC(C)c1cccc(C(C)C)c1O [Propofol] | 1 | High (key: High: HIA value ≥0.7; Low: HIA value < 0.7)
Cc1nccn1C[C@@H]1CCc2c(c3ccccc3n2C)C1=O [Ondansetron(S)] | 1 | High (key: High: HIA value ≥0.7; Low: HIA value < 0.7)
C=CCC1(C(C)CCC)C(=O)NC(=O)NC1=O (stereo not shown) [Quinalbarbitone] | 0.9 | High (key: High: HIA value ≥0.7; Low: HIA value < 0.7)
CC(C)(C)NC[C@H](O)c1ccc(O)c(CO)c1 [Albuterol(R)] | 0.83 | High (key: High: HIA value ≥0.7; Low: HIA value < 0.7)
O/N=C/c1cc[n+](COC[n+]2ccc(/C=N/O)cc2)cc1 [Obidoxime] | 0.05 | Low (key: High: HIA value ≥0.7; Low: HIA value < 0.7)
CN(C)C(=O)O[C@H]1N=C(c2ccccc2)c2cc(Cl)ccc2N(C)C1=O [Camazepam(R)] | 1 | High (key: High: HIA value ≥0.7; Low: HIA value < 0.7)
C=CCc1ccccc1OC[C@@H](O)CNC(C)C [Alprenolol(S)] | 0.93 | High (key: High: HIA value ≥0.7; Low: HIA value < 0.7)
